Experimental data taken from patent US10153510B2, “Non-aqueous redox flow batteries including 3,7-perfluoroalkylated phenothiazine derivatives” (University of Kentucky Research Foundation, priority 2014, dated 2018).
In brackets after ≈: the same amount, converted by molar mass. Several values for one entry are separate records, joined by “and”; a condition that tells them apart may be missing. Identical values can stand only once. Like-named read-outs stand apart in the source and are kept apart here.

Assays:
[1] = Stability rating of phenothiazine derivatives (Table 2 compilation); type: physicochemical
Description: (§1) Table 2 includes a compilation of data related to phenothiazine derivatives overcharge data of phenothiazine compounds as well as whether the compounds are practical for use in redox flow batteries. Some phenothiazine derivatives have solubility and stability sufficient for overcharge protection, they are not sufficiently soluble to be practical for redox flow applications. As exemplified in Table 2, EPT and DClEPT are practical for overcharge protection but are not practical for redox flow.
(§2) The data includes overcharge data at 100% overcharge for EPT, DBrEPT, DClEPT, BCF3EPT and DCNEPT from Ergun, et al. Chem. Comm., 2014, 50, 5339-5341. (30) Overcharge data at constant overcharge for EPT and BCF3EPT is derived from the studies described in Kaur et al., J. Materials Chemistry A, 2014, 2, 18190-18193. (29) Overcharge data at 100% overcharge for PT, MPT and EPT provided in Table 2 was derived from studies described in Narayana et al. ChemPhysChem, 2015, 16, 1179-1189. (32) Overcharge results for BCF3CF2EPT and BCF3(4-CF3C6H4)PT are provided in FIGS. 10 and 11, respectively.

[2] = Cyclic voltammetry, half wave redox potentials; type: physicochemical; conditions: 20 mV/s; for Low potential event vs. Li+/0: 5 mM analyte in 0.2 M LiBF4 in PC; for High potential event vs. Li+/0: 5 mM in 0.2 M LiBF4 in PC, (a) irreversible oxidation potential estimated from forward wave and estimated reverse wave
Procedure: (§3) Electrochemical experiments were performed in an argon-filled glovebox at room temperature. Cyclic voltammetry (CV) measurements were performed in a three-electrode cell with a 3 mm diameter glassy carbon working electrode, Pt wire counter electrode, and Li foil reference electrode; voltammograms were taken of 0.2 M LiBF4 in PC containing 5 mM analyte using a CH Instruments 605E potentiostat. For UV-vis spectra of neutral compounds, catholytes were dissolved at 0.2 mM or 5 mM in 0.2 M LiBF4 in PC in glovebox and were removed in special optical glass cuvettes (Starna) after sealing with Teflon caps. The solutions were subsequently monitored for 5 h on an Agilent 8453 diode-array spectrometer.
Cyclic voltammetry was used to characterize the electrochemical behavior of BCF3EPT and to characterize DBBB and TMeQ for comparison with reported data. The individual redox events for these electro-active materials can be used to estimate the open-circuit voltage (OCV) of an ORFB containing each catholyte-anolyte pair. LiBF4 (0.2M) was used in propylene carbonate (PC) for these experiments to allow for direct comparison with the previously reported DBBB/TMeQ battery. The voltammograms of BCF3EPT show a reversible first oxidation at a potential of 3.9 V vs. Li+/0, which corresponds to generation of the radical cation, followed by an irreversible second oxidation at ca. 4.4 V vs. Li+/0 (FIG. 2a) corresponding to formation of the dication. […] No peaks corresponding to the reduction of the neutral compounds was observed during the anodic scans of BC3EPT and DBBB in this electrolyte. […] The redox potentials of BCF3EPT and DBBB are similar, thus it is contemplated that they will give similar cell voltages when coupled with TMeQ in an ORFB.

[3] = Maximum solubility of electro-active species in 0.2 M LiBF4 in PC; type: physicochemical; conditions: organic solvent or mixture, thermodynamic from solid, room temperature
Procedure: as §3
To study the behavior of the new catholyte BCF3EPT relative to DBBB, a set of batteries with the same concentration of electro-active species as the reported DBBB/TMeQ battery (0.05 M), as well as with the highest concentration possible for all three species, were identified for comparison. The maximum solubilities for DBBB, TMeQ and BCF3EPT in 0.2 M LiBF4 in PC were ca. 0.18 M, 0.37 M, and 1.2 M, respectively. […] Batteries were also fabricated at the highest concentration possible for BCF3EPT and TMeQ (0.35 M), beyond that which was possible for DBBB. By this measure, two sets of batteries were able to be tested at the same concentrations, including one near the limiting concentration of DBBB, and a third that allowed for analysis of a battery near the solubility limit of TMeQ.

[4] = UV-vis stability of neutral and radical-cation forms (bulk electrolysis); type: physicochemical; conditions: for stability of neutral compound by UV-vis: 0.2 mM and 5 mM in LiBF4/PC, over 5 h
Procedure: as §3
Bulk electrolysis experiments were performed at 5 mM analyte in 0.2 M LiBF4 in PC with a Pt coiled-wire working electrode and a Li foil reference electrode, as well as a Pt wire counter electrode suspended in solution in a separate fitted glass tube. Electrolysis potentials were applied for 84 min in the glovebox, after which the solutions were diluted and removed from the glovebox in special optical glass cuvettes (Starna) sealed with Teflon caps. The solutions were subsequently monitored for 5 hours on an Agilent 8453 diode-array spectrometer.
Additionally, a compound that is stable in ambient conditions may be sensitive to electrolyte components, as was previously observed for a phenothiazine derivative with a tert-butyl group at the N position.(31) To compare the stability of the neutral and radical-cation forms of BCF3EPT to those of DBBB, UV-vis spectra were collected for both of the oxidation states of both compounds in LiBF4/PC. […] To simulate the charged species of each catholyte, the radical cation was generated by bulk electrolysis.

[5] = Solubility of phenothiazine derivatives (Table 2 compilation); type: physicochemical; conditions: electrolyte not stated
Description: as §1, §2

[6] = 1.2 M LiPF6 in EC/EMC; cited from earlier work
[7] = organic solvent or mixture, read-out: Solubility

Structure (SMILES)	Stability [1]	Solubility [5]	further results
CCN1c2ccc(C(F)(F)C(F)(F)F)cc2Sc2cc(C(F)(F)C(F)(F)F)ccc21 [BCF3CF2EPT]	High		
CCN1c2ccc(C(F)(F)F)cc2Sc2cc(C(F)(F)F)ccc21 [BCF3EPT, 3,7-bis(trifluoromethyl)-N-ethylphenothiazine]	high		Low potential event vs. Li+/0 [2]: 3.9 V; solubility at 1 h [3]: ~1200 mM (≈ 436 mg/mL); stability of neutral compound by UV-vis [4]: neither compound showed measurable signs of change; stability of radical cation (UV-vis, comparison) ([4]; 0.2 M LiBF4 in PC, 5 h period): significantly more stable; Solubility [5, 7]: 1.5 to 2 M (≈ 545 to 727 mg/mL); stability relative to DDB [6]: higher stability
COCCOc1cc(C(C)(C)C)c(OCCOC)cc1C(C)(C)C [DBBB, 2,5-di-tert-butyl-1,4-bis(2-methoxyethoxy)benzene]			Low potential event vs. Li+/0 [2]: 4.0 V; High potential event vs. Li+/0 [2]: 4.7 V and 4.7^(a) V; solubility at 1 h [3]: ~180 mM (≈ 60.9 mg/mL); stability of neutral compound by UV-vis [4]: neither compound showed measurable signs of change
CCN1c2ccc([N+](=O)[O-])cc2Sc2cc([N+](=O)[O-])ccc21 [DNO2EPT]		Low	
c1ccc2c(c1)Nc1ccccc1S2 [PT]	Low	0.1 M (≈ 19.9 mg/mL)	
Cc1ccc2nc(C)c(C)nc2c1 [TMeQ, 2,3,6-trimethyl quinoxaline]			Low potential event vs. Li+/0 [2]: 2.5 V; High potential event vs. Li+/0 [2]: 2.8 V; solubility at 1 h [3]: ~370 mM (≈ 63.7 mg/mL)

Further lines, with some results ahead:

Stability [1]	Solubility [5]	Structure (SMILES)	further results
High		CCN1c2ccc(C#N)cc2Sc2cc(C#N)ccc21 [BCF3(4-CF3C6H4)PT]	
high	0.1 M (≈ 38.5 mg/mL)	CCN1c2ccc(Br)cc2Sc2cc(Br)ccc21 [DBrEPT]	
high	low	CCN1c2ccc(C#N)cc2Sc2cc(C#N)ccc21 [DCNEPT]	
High	0.1 M (≈ 29.6 mg/mL)	CCN1c2ccc(Cl)cc2Sc2cc(Cl)ccc21 [DClEPT]	
High		CCN1c2ccccc2Sc2ccccc21 [EPT]	Solubility [5, 7]: 0.1 M (≈ 22.7 mg/mL)
high	0.1 M (≈ 21.3 mg/mL)	CN1c2ccccc2Sc2ccccc21 [MPT]	
